# Experimental data reported in US20060013880A1, “Formulation stabilizer for proton pump inhibitors” (priority 2004, published 2006).
# Method: This standardized stress study simulates degradation during long-term storage under high, but naturally occurring humidity levels. • 1) Dry binary mixture was prepared by accurately weighing 30 mg of lansoprazole ( Lot # A10344, purchased from ITF Chemical, LTDA, of Polo Petrochimico, Brazil) into a 20 ml head space-gas chromatography vial. A stabilizer was also weighed and added into the vial. The stabilizer tested in the experiments included the polymeric bases: cholestyramine chloride ( Lot# 038167, Dow Chemical), cholestyramine resin in hydroxide form (prepared from cholestyramine chloride as described in Example 1), Eudragit E-PO powder (lot# G030131033, Rohm Gmbh, Germany), and chitosan powder (Mutchler inc., Harrington, N.J.). […] The lansoprazole and stabilizer were mixed by vortexing for 30 seconds. • 2) A second set of dry binary mixtures were prepared in a head space-gas chromatography vial with a glass insert. […] Ten microliters of the diluted samples were analyzed by HPLC to quantitate the remaining lansoprazole using freshly prepared external lansoprazole standard solution. […]
substance,measurement,value
cholestyramine hydroxide,Stabilization effect for lansoprazole (in words),significant stabilization effect
